# Values of other authors in patent publication US10385093B2, “Estrogen receptor imaging agents” (Northeastern University, priority 2012, dated 2019).
# How the values were obtained:
# [1] = plasma of patients
# [2] = rats, by 60 minutes after injection
# [3] = system: ER; settings: binding to ER in target tissues
# [4] = molecular target: T1, steroid hormone binding globulin (SHBG) (Homo sapiens, UniProt P04278)
# T1 construct: host or cells: circulating plasma
# T1 sequence (P04278 30-402): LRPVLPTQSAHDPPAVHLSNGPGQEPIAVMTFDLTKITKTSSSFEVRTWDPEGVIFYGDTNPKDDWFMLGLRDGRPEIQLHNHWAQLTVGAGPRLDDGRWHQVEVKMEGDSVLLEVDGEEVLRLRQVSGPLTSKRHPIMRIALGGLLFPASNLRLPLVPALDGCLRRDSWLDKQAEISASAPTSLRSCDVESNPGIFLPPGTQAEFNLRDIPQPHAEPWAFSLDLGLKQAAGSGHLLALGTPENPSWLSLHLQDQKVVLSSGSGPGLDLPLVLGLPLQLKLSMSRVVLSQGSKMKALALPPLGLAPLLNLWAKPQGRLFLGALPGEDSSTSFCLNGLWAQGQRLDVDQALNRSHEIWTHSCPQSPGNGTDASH
# [5] = small animal studies
radioactivity in plasma that is parent FES [1],circulating radioactivity due to [18F]-FES [2],relative binding affinity (RBA) [3],FES in circulating plasma complexed with SHBG [4],selectivity uptake ratios compared with [^18F]-ES [5],Compound
less than 20%,less than 15%,80%,≤ 45%,–,"C[C@]12CC[C@@H]3c4ccc(O)cc4CC[C@H]3[C@@H]1C[C@@H](F)[C@@H]2O [FES, [^18F]-16α-fluoroestradiol]"
–,–,–,–,higher selectivity uptake ratios,"CO[C@H]1C[C@]2(C)[C@@H](O)[C@H]([18F])C[C@H]2[C@@H]2CCc3c(ccc(O)c3F)[C@H]21 [4FMFES, 4-Fluoro-11β-methoxy-16α-[^18F]-flouroestradiol]"
